Reference: BigSolDB 2.1

CCC[C@H](N)C(=O)O
solubility (mole fraction)
Details	298.15 K	303.15 K	308.15 K	313.15 K	318.15 K	323.15 K
in acetone	0.000515	0.000664	0.000828	0.00106	0.00135	0.00161
in acetonitrile	5.93e-05	6.88e-05	7.54e-05	8.02e-05	8.53e-05	9.69e-05
in ethanol	0.000171	0.000186	0.000201	0.000227	0.000244	0.000283
in ethyl acetate	0.000253	0.000301	0.000349	0.000449	0.0005	0.00056
in isopentanol	0.000726	0.000875	0.00103	0.00122	0.00151	0.00183
in isopropanol	0.00119	0.0015	0.00173	0.00192	0.00215	0.00249
in methanol	0.00104	0.00109	0.00113	0.0012	0.00126	0.00129
in methyl acetate	7.37e-05	9.03e-05	0.00012	0.00015	0.000176	0.000216
in n-butanol	0.000962	0.00122	0.0014	0.00157	0.00175	0.0019
in n-pentanol	0.000508	0.000567	0.000639	0.000744	0.000818	0.000872
in n-propanol	0.000859	0.00115	0.0015	0.00189	0.00231	0.00278
in water	0.0135	0.0136	0.0137	0.0138	0.0139	0.0141
